Measurements: US20200199127A1, “(HETERO)ARYLALKYLAMINO-PYRAZOLOPYRIDAZINE DERIVATIVES HAVING MULTIMODAL ACTIVITY AGAINST PAIN” (priority 2017, published 2020)

Assays:
[1] = target: Human α2δ-1 subunit of Cav2.2 calcium channel (Homo sapiens, UniProt P54289); experiment: Human α2δ-1 subunit of Cav2.2 calcium channel assay, [3H]-Gabapentin binding; settings: human α2δ-1 enriched membranes, 15 nM [3H]-Gabapentin; Ki as class symbol
Procedure: Human α2δ-1 Subunit of Cav2.2 Calcium Channel Assay
Human α2δ-1 enriched membranes (2.5 μg) were incubated with 15 nM of radiolabeled [3H]-Gabapentin in assay buffer containing Hepes-KOH 10 mM, pH 7.4. NSB (non specific binding) was measured by adding 10 μM pregabalin. The binding of the test compound was measured at five different concentrations. After 60 min incubation at 27° C., binding reaction was terminated by filtering through Multiscreen GF/C (Millipore) presoaked in 0.5% polyethyleneimine in Vacuum Manifold Station, followed by 3 washes with ice-cold filtration buffer containing 50 mM Tris-HCl, pH 7.4. Filter plates were dried at 60° C. for 1 hour and 30 μl of scintillation cocktail were added to each well before radioactivity reading. Readings were performed in a Trilux 1450 Microbeta radioactive counter (Perkin Elmer).

[2] = target: Human norepinephrine transporter (NET) (Homo sapiens, UniProt P23975); experiment: Binding assay to human norepinephrine transporter (NET), [3H]-Nisoxetin; settings: human NET enriched membranes, 5 nM [3H]-Nisoxetin; Ki as class symbol
Human norepinephrine transporter (NET), sequence (P23975 whole entry): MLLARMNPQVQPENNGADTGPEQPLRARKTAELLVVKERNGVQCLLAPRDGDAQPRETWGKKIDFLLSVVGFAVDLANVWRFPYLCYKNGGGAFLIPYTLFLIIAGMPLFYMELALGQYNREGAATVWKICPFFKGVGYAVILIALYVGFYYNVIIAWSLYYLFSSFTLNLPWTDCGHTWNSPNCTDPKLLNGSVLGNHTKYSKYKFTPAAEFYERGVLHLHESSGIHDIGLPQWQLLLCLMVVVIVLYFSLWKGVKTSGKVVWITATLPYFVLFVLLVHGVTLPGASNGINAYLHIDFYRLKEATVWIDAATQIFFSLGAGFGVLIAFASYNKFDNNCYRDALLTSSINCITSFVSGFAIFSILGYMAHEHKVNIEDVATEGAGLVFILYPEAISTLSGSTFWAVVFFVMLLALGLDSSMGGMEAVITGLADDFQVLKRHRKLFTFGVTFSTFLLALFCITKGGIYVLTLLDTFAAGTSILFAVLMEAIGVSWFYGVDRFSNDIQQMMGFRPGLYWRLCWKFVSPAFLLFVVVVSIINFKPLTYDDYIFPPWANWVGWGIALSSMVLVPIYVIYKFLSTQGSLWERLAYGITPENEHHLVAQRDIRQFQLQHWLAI
Procedure: Binding Assay to Human Norepinephrine Transporter (NET).
Human norepinephrine transporter (NET) enriched membranes (5 μg) were incubated with 5 nM of radiolabeled [3H]-Nisoxetin in assay buffer containing 50 mM Tris-HCl, 120 mM NaCl, 5 mM KCl, pH 7.4.
NSB (non specific binding) was measured by adding 10 μM of desipramine. The binding of the test compound was measured at five different concentrations.. After 60 min incubation at 4° C., binding reaction was terminated by filtering through Multiscreen GF/C (Millipore) presoaked in 0.5% polyethyleneimine in Vacuum Manifold Station, followed by 3 washes with ice-cold filtration buffer containing 50 mM Tris-HCl, 0.9% NaCl, pH 7.4.
Filter plates were dried at 60° C. for 1 hour and 30 μl of scintillation cocktail were added to each well before radioactivity reading.

Human α2δ-1 subunit of Cav2.2 calcium channel, sequence (P54289 25-1103): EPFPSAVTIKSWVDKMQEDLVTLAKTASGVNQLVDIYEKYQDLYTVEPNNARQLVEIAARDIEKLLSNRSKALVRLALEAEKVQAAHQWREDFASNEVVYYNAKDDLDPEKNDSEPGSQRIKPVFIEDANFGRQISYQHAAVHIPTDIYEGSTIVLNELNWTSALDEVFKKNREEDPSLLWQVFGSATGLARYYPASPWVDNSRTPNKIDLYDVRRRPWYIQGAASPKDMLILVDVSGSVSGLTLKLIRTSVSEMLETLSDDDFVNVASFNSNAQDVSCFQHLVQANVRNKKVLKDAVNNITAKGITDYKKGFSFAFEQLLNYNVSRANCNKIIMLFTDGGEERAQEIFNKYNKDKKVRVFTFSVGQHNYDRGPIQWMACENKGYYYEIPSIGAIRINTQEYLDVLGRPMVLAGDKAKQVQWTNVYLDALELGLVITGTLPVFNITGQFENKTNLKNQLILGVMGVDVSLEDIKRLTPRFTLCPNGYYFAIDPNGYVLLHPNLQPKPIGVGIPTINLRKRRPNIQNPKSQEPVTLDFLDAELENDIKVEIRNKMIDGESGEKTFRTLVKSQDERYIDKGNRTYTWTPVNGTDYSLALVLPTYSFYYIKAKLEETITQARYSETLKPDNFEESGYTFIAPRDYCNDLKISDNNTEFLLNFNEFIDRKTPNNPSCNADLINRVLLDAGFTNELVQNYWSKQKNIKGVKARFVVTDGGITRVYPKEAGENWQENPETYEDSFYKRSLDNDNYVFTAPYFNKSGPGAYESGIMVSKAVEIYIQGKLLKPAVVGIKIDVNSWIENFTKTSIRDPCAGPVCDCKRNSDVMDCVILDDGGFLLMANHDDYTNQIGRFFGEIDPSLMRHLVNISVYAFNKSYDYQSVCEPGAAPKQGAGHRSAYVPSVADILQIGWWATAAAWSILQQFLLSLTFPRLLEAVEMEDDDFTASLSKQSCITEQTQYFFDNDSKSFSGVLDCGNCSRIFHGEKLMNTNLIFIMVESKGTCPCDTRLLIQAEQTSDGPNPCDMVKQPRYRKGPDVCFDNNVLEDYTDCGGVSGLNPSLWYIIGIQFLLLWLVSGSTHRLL

| Compound | Ki [1] [nM] | Ki [2] [nM] |
| --- | --- | --- |
| CCOc1ccc(-n2nc3c(NCc4ccccn4)nnc(C)c3c2C)c(F)c1 [Example 14, 2-(4-ethoxy-2-fluorophenyl)-3,4-dimethyl-N-(pyridin-2-ylmethyl)-2H-pyrazolo[3,4-d]pyridazin-7-amine] | 100 to 500 | > 1000 |
| CCOc1ccc(-n2nc3c(N(C)CCc4ccccn4)nnc(C)c3c2C)c(F)c1 [Example 16, 2-(4-ethoxy-2-fluorophenyl)-N,3,4-trimethyl-N-(2-(pyridin-2-yl)ethyl)-2H-pyrazolo[3,4-d]pyridazin-7-amine] | 100 to 500 | > 1000 |
| CCOc1ccc(-n2nc3c(NCc4ncccc4C(F)(F)F)nnc(C)c3c2C)c(F)c1 [Example 20, 2-(4-ethoxy-2-fluorophenyl)-3,4-dimethyl-N-((3-(trifluoromethyl)pyridin-2-yl)methyl)-2H-pyrazolo[3,4-d]pyridazin-7-amine] | 100 to 500 | > 1000 |
| CCOc1ccc(-n2nc3c(N(C)CCCc4ccccc4O)nnc(C)c3c2C)c(F)c1 [Example 21, 2-(3-((2-(4-ethoxy-2-fluorophenyl)-3,4-dimethyl-2H-pyrazolo[3,4-d]pyridazin-7-yl)(methyl)amino)propyl)phenol] | ≥ 5000 | 500 to 1000 |
| CCOc1ccc(-n2nc3c(NCc4cc(C)ccn4)nnc(C)c3c2C)c(F)c1 [Example 22, 2-(4-ethoxy-2-fluorophenyl)-3,4-dimethyl-N-((4-methylpyridin-2-yl)methyl)-2H-pyrazolo[3,4-d]pyridazin-7-amine] | 100 to 500 | > 1000 |
| CCOc1ccc(-n2nc3c(N(C)Cc4cnc[nH]4)nnc(C)c3c2C)c(F)c1 [Example 24, N-((1H-imidazol-5-yl)methyl)-2-(4-ethoxy-2-fluorophenyl)-N,3,4-trimethyl-2H-pyrazolo[3,4-d]pyridazin-7-amine] | 100 to 500 | > 1000 |
| CCOc1ccc(-n2nc3c(N(C)Cc4ncc[nH]4)nnc(C)c3c2C)c(F)c1 [Example 25, N-((1H-imidazol-2-yl)methyl)-2-(4-ethoxy-2-fluorophenyl)-N,3,4-trimethyl-2H-pyrazolo[3,4-d]pyridazin-7-amine] | 500 to 5000 | > 1000 |
| CCOc1ccc(-n2nc3c(N(C)Cc4ncccn4)nnc(C)c3c2C)c(F)c1 [Example 26, 2-(4-ethoxy-2-fluorophenyl)-N,3,4-trimethyl-N-(pyrimidin-2-ylmethyl)-2H-pyrazolo[3,4-d]pyridazin-7-amine] | 100 to 500 | > 1000 |
| CCOc1ccc(-n2nc3c(N(C)Cc4cscn4)nnc(C)c3c2C)c(F)c1 [Example 29, 2-(4-ethoxy-2-fluorophenyl)-N,3,4-trimethyl-N-(thiazol-4-ylmethyl)-2H-pyrazolo[3,4-d]pyridazin-7-amine] | 100 to 500 | > 1000 |
| CCOc1ccc(-n2nc3c(N(C)Cc4cccc(OC)n4)nnc(C)c3c2C)c(F)c1 [Example 30, 2-(4-ethoxy-2-fluorophenyl)-N-((6-methoxypyridin-2-yl)methyl)-N,3,4-trimethyl-2H-pyrazolo[3,4-d]pyridazin-7-amine] | 100 to 500 | 500 to 1000 |
| CCOc1ccc(-n2nc3c(N(C)Cc4cc(OC)ccn4)nnc(C)c3c2C)c(F)c1 [Example 31, 2-(4-ethoxy-2-fluorophenyl)-N-((4-methoxypyridin-2-yl)methyl)-N,3,4-trimethyl-2H-pyrazolo[3,4-d]pyridazin-7-amine] | 100 to 500 | > 1000 |
| CCOc1ccc(-n2nc3c(N(C)Cc4ncccc4F)nnc(C)c3c2C)c(F)c1 [Example 33, 2-(4-ethoxy-2-fluorophenyl)-N-((3-fluoropyridin-2-yl)methyl)-N,3,4-trimethyl-2H-pyrazolo[3,4-d]pyridazin-7-amine] | 100 to 500 | 100 to 500 |
| CCOc1ccc(-n2nc3c(N(C)Cc4ccc(C)cn4)nnc(C)c3c2C)c(F)c1 [Example 34, 2-(4-ethoxy-2-fluorophenyl)-N,3,4-trimethyl-N-((5-methylpyridin-2-yl)methyl)-2H-pyrazolo[3,4-d]pyridazin-7-amine] | 100 to 500 | > 1000 |
| CCOc1ccc(-n2nc3c(N(C)Cc4cnccn4)nnc(C)c3c2C)c(F)c1 [Example 35, 2-(4-ethoxy-2-fluorophenyl)-N,3,4-trimethyl-N-(pyrazin-2-ylmethyl)-2H-pyrazolo[3,4-d]pyridazin-7-amine] | 100 to 500 | > 1000 |
| CCOc1ccc(-n2nc3c(N(C)Cc4ccncn4)nnc(C)c3c2C)c(F)c1 [Example 36, 2-(4-ethoxy-2-fluorophenyl)-N,3,4-trimethyl-N-(pyrimidin-4-ylmethyl)-2H-pyrazolo[3,4-d]pyridazin-7-amine] | 100 to 500 | > 1000 |
| CCOc1ccc(-n2nc3c(NCc4ccccc4CO)nnc(C)c3c2C)c(F)c1 [Example 37, (2-(((2-(4-ethoxy-2-fluorophenyl)-3,4-dimethyl-2H-pyrazolo[3,4-d]pyridazin-7-yl)amino)methyl)phenyl)methanol] | 100 to 500 | > 1000 |
| CCOc1ccc(-n2nc3c(N(CC)Cc4ccccn4)nnc(C)c3c2C)c(F)c1 [Example 40, 2-(4-ethoxy-2-fluorophenyl)-N-ethyl-3,4-dimethyl-N-(pyridin-2-ylmethyl)-2H-pyrazolo[3,4-d]pyridazin-7-amine] | 500 to 5000 | 100 to 500 |
| COc1ccc(-n2nc3c(N(C)Cc4ccccn4)nnc(C)c3c2C)c(F)c1 [Example 45, 2-(2-fluoro-4-methoxyphenyl)-N,3,4-trimethyl-N-(pyridin-2-ylmethyl)-2H-pyrazolo[3,4-d]pyridazin-7-amine] | ≥ 5000 | > 1000 |
| COc1ccc(-n2nc3c(N(C)Cc4ccccn4)nnc(C)c3c2C)cc1 [Example 48, 2-(4-methoxyphenyl)-N,3,4-trimethyl-N-(pyridin-2-ylmethyl)-2H-pyrazolo[3,4-d]pyridazin-7-amine] | 500 to 5000 | > 1000 |
| CCOc1ccc(-n2nc3c(N(CCO)Cc4ccncc4)nnc(C)c3c2C)c(F)c1 [Example 53, 2-((2-(4-Ethoxy-2-fluorophenyl)-3,4-dimethyl-2H-pyrazolo[3,4-d]pyridazin-7-yl)(pyridin-4-ylmethyl)amino)ethanol] | ≥ 5000 | > 1000 |

Other lines, results leading:

| Ki [1] [nM] | Ki [2] [nM] | Compound |
| --- | --- | --- |
| 100 to 500 | > 1000 | CCOc1ccc(-n2nc3c(NCCc4ccccn4)nnc(C)c3c2C)c(F)c1 [Example 15, 2-(4-ethoxy-2-fluorophenyl)-3,4-dimethyl-N-(2-(pyridin-2-yl)ethyl)-2H-pyrazolo[3,4-d]pyridazin-7-amine] |
| 100 to 500 | > 1000 | CCOc1ccc(-n2nc3c(NCC(O)Cc4ccccc4)nnc(C)c3c2C)c(F)c1 (stereo not shown) [Example 19, 1-((2-(4-ethoxy-2-fluorophenyl)-3,4-dimethyl-2H-pyrazolo[3,4-d]pyridazin-7-yl)amino)-3-phenylpropan-2-ol] |
| 100 to 500 | 500 to 1000 | CCOc1ccc(-n2nc3c(N(C)Cc4ccccc4O)nnc(C)c3c2C)c(F)c1 [Example 23, 2-(((2-(4-ethoxy-2-fluorophenyl)-3,4-dimethyl-2H-pyrazolo[3,4-d]pyridazin-7-yl)(methyl)amino)methyl)phenol] |
| 500 to 5000 | > 1000 | CCOc1ccc(-n2nc3c(N(C)Cc4ccon4)nnc(C)c3c2C)c(F)c1 [Example 27, 2-(4-ethoxy-2-fluorophenyl)-N-(isoxazol-3-ylmethyl)-N,3,4-trimethyl-2H-pyrazolo[3,4-d]pyridazin-7-amine] |
| 100 to 500 | > 1000 | CCOc1ccc(-n2nc3c(N(C)Cc4ccn[nH]4)nnc(C)c3c2C)c(F)c1 [Example 28, N-((1H-pyrazol-5-yl)methyl)-2-(4-ethoxy-2-fluorophenyl)-N,3,4-trimethyl-2H-pyrazolo[3,4-d]pyridazin-7-amine] |
| 100 to 500 | 100 to 500 | CCOc1ccc(-n2nc3c(N(C)Cc4ncccc4C)nnc(C)c3c2C)c(F)c1 [Example 32, 2-(4-ethoxy-2-fluorophenyl)-N,3,4-trimethyl-N-((3-methylpyridin-2-yl)methyl)-2H-pyrazolo[3,4-d]pyridazin-7-amine] |
| ≥ 5000 | 500 to 1000 | CCOc1ccc(-n2nc3c(N(C)CCC(N)c4ccccc4)nnc(C)c3c2C)c(F)c1 (stereo not shown) [Example 39, N1-(2-(4-ethoxy-2-fluorophenyl)-3,4-dimethyl-2H-pyrazolo[3,4-d]pyridazin-7-yl)-N1-methyl-3-phenylpropane-1,3-diamine] |
| 500 to 5000 | 100 to 500 | CCOc1ccc(-n2nc3c(N(C)Cc4ccccc4CNC)nnc(C)c3c2C)c(F)c1 [Example 43, 2-(4-ethoxy-2-fluorophenyl)-N,3,4-trimethyl-N-(2-((methylamino)methyl)benzyl)-2H-pyrazolo[3,4-d]pyridazin-7-amine] |
| ≥ 5000 | > 1000 | Cc1nnc(N(C)Cc2ccccn2)c2nn(-c3ccc(O)cc3)c(C)c12 [Example 47, 4-(3,4-dimethyl-7-(methyl(pyridin-2-ylmethyl)amino)-2H-pyrazolo[3,4-d]pyridazin-2-yl)phenol] |
